Experiments:
Helios = Helios (Homo sapiens, UniProt Q96SW2+Q9UKS7); assay: Helios Cellular Degradation Assay (Helios readout); type: cell-based; design: endogenous in cells; host or cells: Jurkat; conditions: Jurkat cells, 72 h incubation, Helios-PE antibody staining, flow cytometry; read-out: Helios Jurkat IC50
Summary of the method: (§1)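 Jurkat cells (80,000/well, RPMI+10% FBS) were treated with compound for 72 h at 37° C. After fixation and permeabilization they were stained with fluorescent antibodies to Helios, Ikaros and Aiolos. Intracellular protein levels were quantified by flow cytometry.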

Ikaros = Ikaros (Homo sapiens, UniProt Q13422+Q96SW2); assay: Helios Cellular Degradation Assay (Ikaros readout); type: cell-based; design: endogenous in cells; host or cells: Jurkat; conditions: Jurkat cells, 72 h incubation, Ikaros-Alexa488 antibody staining, flow cytometry; read-out: Ikaros Jurkat IC50
Sequence of Ikaros (Q13422 whole entry): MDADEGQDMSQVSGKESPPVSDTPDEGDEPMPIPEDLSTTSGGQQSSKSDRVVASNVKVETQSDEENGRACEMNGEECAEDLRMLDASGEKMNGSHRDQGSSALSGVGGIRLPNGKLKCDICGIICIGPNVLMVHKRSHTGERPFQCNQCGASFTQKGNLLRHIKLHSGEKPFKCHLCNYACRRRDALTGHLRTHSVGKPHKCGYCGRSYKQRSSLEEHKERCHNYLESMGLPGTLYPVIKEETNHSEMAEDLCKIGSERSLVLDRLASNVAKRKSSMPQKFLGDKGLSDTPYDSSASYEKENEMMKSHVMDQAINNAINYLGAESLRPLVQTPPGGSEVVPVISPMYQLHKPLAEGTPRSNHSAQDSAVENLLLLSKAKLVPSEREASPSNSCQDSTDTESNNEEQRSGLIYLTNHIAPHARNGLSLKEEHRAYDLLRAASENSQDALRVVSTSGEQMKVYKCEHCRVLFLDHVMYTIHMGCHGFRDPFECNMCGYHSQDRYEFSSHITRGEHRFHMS
Sequence of Ikaros (Q96SW2 whole entry): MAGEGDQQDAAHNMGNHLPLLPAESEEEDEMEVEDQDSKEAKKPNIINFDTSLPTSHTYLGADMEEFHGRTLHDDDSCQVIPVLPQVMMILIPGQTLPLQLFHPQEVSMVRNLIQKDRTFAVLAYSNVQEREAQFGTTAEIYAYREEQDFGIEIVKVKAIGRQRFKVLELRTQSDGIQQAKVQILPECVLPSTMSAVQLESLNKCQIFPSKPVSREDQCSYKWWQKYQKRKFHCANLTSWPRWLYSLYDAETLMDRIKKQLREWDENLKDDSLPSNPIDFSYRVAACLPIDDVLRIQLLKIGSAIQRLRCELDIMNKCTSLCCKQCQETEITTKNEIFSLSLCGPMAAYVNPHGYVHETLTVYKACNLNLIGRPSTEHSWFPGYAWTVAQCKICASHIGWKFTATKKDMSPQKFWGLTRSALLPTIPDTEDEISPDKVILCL
Sequence of Ikaros (Q16531 whole entry partner): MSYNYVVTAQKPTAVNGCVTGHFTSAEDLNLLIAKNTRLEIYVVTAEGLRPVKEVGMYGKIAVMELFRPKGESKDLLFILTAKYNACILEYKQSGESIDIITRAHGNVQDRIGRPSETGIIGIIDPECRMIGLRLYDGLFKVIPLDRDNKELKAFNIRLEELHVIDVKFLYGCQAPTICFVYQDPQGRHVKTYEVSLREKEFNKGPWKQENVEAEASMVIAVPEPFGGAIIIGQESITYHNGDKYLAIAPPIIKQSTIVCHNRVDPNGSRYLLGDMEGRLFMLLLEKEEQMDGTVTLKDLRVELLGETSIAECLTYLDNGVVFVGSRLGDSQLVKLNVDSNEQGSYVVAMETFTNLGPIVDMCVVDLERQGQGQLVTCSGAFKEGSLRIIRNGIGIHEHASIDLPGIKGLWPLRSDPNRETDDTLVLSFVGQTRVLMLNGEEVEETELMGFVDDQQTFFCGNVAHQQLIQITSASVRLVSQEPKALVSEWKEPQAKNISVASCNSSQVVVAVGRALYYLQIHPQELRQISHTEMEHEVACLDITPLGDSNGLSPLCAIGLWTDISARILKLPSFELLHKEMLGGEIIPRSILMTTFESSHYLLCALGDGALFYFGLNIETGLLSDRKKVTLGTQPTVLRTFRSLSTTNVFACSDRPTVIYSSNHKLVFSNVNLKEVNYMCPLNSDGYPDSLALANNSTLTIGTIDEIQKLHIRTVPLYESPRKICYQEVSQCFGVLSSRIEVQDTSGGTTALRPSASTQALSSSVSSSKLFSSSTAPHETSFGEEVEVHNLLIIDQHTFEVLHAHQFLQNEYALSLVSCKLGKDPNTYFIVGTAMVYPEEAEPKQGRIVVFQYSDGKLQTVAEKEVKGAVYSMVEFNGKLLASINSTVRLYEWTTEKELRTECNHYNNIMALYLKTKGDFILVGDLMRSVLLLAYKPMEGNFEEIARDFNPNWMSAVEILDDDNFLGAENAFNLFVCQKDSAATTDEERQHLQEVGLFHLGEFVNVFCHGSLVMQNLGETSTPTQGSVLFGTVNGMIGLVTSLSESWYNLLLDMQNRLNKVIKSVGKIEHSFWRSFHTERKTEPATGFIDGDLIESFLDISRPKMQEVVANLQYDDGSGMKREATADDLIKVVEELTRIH
Summary of the method: as §1

Sequence of Helios (Q9UKS7 whole entry): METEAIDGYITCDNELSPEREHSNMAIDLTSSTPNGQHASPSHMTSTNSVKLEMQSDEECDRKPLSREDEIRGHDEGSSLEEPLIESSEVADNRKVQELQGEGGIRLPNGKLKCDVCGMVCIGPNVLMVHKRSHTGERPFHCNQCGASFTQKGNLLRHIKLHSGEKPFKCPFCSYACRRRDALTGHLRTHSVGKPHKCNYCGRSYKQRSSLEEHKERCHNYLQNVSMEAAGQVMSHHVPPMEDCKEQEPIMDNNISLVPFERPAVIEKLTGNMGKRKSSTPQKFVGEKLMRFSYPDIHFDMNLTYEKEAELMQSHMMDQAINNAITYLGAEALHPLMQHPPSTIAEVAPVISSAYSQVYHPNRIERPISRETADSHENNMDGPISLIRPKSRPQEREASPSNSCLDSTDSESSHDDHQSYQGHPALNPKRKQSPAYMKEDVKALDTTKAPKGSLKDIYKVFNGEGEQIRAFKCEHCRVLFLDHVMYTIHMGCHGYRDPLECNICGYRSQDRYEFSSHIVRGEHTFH
Sequence of Helios (Q96SW2 whole entry): as the sequence (Q96SW2 whole entry) above
Sequence of Helios (Q16531 whole entry partner): as the sequence (Q16531 whole entry partner) above

Nc1nc(-c2ccc3c(c2)CN([C@@H]2CCC(=O)NC2=O)C3=O)cc2ccccc12 [Example 83, (3R)-3-[5-(1-aminoisoquinolin-3-yl)-1-oxo-2,3-dihydro-1H-isoindol-2-yl]piperidine-2,6-dione]
DC50 (Helios): 0.03 µM
DC50 (Ikaros): ≥ 20 µM

CCOc1c(-c2ccc3c(c2)CN([C@H]2CCC(=O)NC2=O)C3=O)nc(N)c2ccccc12 [Example 84, (3S)-3-[5-(1-amino-4-ethoxyisoquinolin-3-yl)-1-oxo-2,3-dihydro-1H-isoindol-2-yl]piperidine-2,6-dione]
DC50 (Helios): 0.003 µM
DC50 (Ikaros): ≥ 20 µM

CCOc1c(-c2ccc3c(c2)CN(C2CCC(=O)NC2=O)C3=O)ncc2ccccc12 (centres unmarked) [Example 85, 3-(5-(4-ethoxyisoquinolin-3-yl)-1-oxoisoindolin-2-yl)piperidine-2,6-dione]
DC50 (Helios): 0.01 µM
DC50 (Ikaros): 1.82 µM

CCOc1c(-c2ccc3c(c2)CN(C2CCC(=O)NC2=O)C3=O)nc(Cl)c2ccccc12 (centres unmarked) [Example 86, 3-(5-(1-chloro-4-ethoxyisoquinolin-3-yl)-1-oxoisoindolin-2-yl)piperidine-2,6-dione]
DC50 (Helios): 0.05 µM
DC50 (Ikaros): 0.19 µM

O=C1CCC(N2Cc3cc(-c4cc5c(cn4)OCCN5)ccc3C2=O)C(=O)N1 (centres unmarked) [Example 87, 3-(5-(2,3-dihydro-1H-pyrido[3,4-b][1,4]oxazin-7-yl)-1-oxoisoindolin-2-yl)piperidine-2,6-dione]
DC50 (Helios): 0.1 µM
DC50 (Ikaros): ≥ 20 µM

Cc1nc(-c2ccc3c(c2)CN(C2CCC(=O)NC2=O)C3=O)cc2ccccc12 (centres unmarked) [Example 88, 3-(5-(1-methylisoquinolin-3-yl)-1-oxoisoindolin-2-yl)piperidine-2,6-dione]
DC50 (Helios): 0.02 µM
DC50 (Ikaros): ≥ 20 µM

O=C1CCC(N2Cc3cc(-c4cc5ccccc5c(C5CC5)n4)ccc3C2=O)C(=O)N1 (centres unmarked) [Example 89, 3-(5-(1-cyclopropylisoquinolin-3-yl)-1-oxoisoindolin-2-yl)piperidine-2,6-dione]
DC50 (Helios): 2.2 µM
DC50 (Ikaros): ≥ 20 µM

N#Cc1cnc(-c2ccc3c(c2)CN(C2CCC(=O)NC2=O)C3=O)c2ccccc12 (centres unmarked) [Example 90, -(2-(2,6-dioxopiperidin-3-yl)-1-oxoisoindolin-5-yl)isoquinoline-4-carbonitrile]
DC50 (Helios): 0.02 µM
DC50 (Ikaros): 0.41 µM

O=C1CCC(N2Cc3cc(-c4ncnc5ccccc45)ccc3C2=O)C(=O)N1 (centres unmarked) [Example 91, 3-(1-oxo-5-(quinazolin-4-yl)isoindolin-2-yl)piperidine-2,6-dione]
DC50 (Helios): 0.21 µM
DC50 (Ikaros): ≥ 20 µM

CN1CCc2nc(-c3ccc4c(c3)CN(C3CCC(=O)NC3=O)C4=O)ccc2C1=O (centres unmarked) [Example 92, 3-(5-(6-methyl-5-oxo-5,6,7,8-tetrahydro-1,6-naphthyridin-2-yl)-1-oxoisoindolin-2-yl)piperidine-2,6-dione]
DC50 (Helios): 1.5 µM
DC50 (Ikaros): ≥ 20 µM

O=C1CCC(N2Cc3cc(-c4nc5ccccc5nc4Cl)ccc3C2=O)C(=O)N1 (centres unmarked) [Example 93, 3-(5-(3-chloroquinoxalin-2-yl)-1-oxoisoindolin-2-yl)piperidine-2,6-dione]
DC50 (Helios): 17.1 µM
DC50 (Ikaros): ≥ 20 µM

COc1nc2ccccc2nc1-c1ccc2c(c1)CN(C1CCC(=O)NC1=O)C2=O (centres unmarked) [Example 94, 3-(5-(3-methoxyquinoxalin-2-yl)-1-oxoisoindolin-2-yl)piperidine-2,6-dione]
DC50 (Helios): 1.07 µM
DC50 (Ikaros): ≥ 20 µM

CCNc1nc2ccccc2nc1-c1ccc2c(c1)CN(C1CCC(=O)NC1=O)C2=O (centres unmarked) [Example 95, 3-(5-(3-(ethylamino)quinoxalin-2-yl)-1-oxoisoindolin-2-yl)piperidine-2,6-dione]
DC50 (Helios): 0.11 µM
DC50 (Ikaros): 0.31 µM

O=C1CCC(N2Cc3cc(-c4nc5ccccc5nc4O)ccc3C2=O)C(=O)N1 (centres unmarked) [Example 96, 3-(5-(3-hydroxyquinoxalin-2-yl)-1-oxoisoindolin-2-yl)piperidine-2,6-dione]
DC50 (Helios): 0.2 µM
DC50 (Ikaros): ≥ 20 µM

CC(C)c1nc2ccccc2nc1-c1ccc2c(c1)CN(C1CCC(=O)NC1=O)C2=O (centres unmarked) [Example 98, 3-(5-(3-isopropylquinoxalin-2-yl)-1-oxoisoindolin-2-yl)piperidine-2,6-dione]
DC50 (Helios): 0.86 µM
DC50 (Ikaros): ≥ 20 µM

O=C1CCC(N2Cc3cc(-c4nc5ccccc5nc4-c4ccccc4)ccc3C2=O)C(=O)N1 (centres unmarked) [Example 99, 3-(1-oxo-5-(3-phenylquinoxalin-2-yl)isoindolin-2-yl)piperidine-2,6-dione]
DC50 (Helios): 0.34 µM
DC50 (Ikaros): ≥ 20 µM

O=C1CCC(N2Cc3cc(-c4nccc5ncccc45)ccc3C2=O)C(=O)N1 (centres unmarked) [Example 100, 3-(5-(1,6-naphthyridin-5-yl)-1-oxoisoindolin-2-yl)piperidine-2,6-dione]
DC50 (Helios): 0.21 µM
DC50 (Ikaros): ≥ 20 µM

Nc1ccc(Br)c(-c2ccc3c(c2)CN(C2CCC(=O)NC2=O)C3=O)n1 (centres unmarked) [Example 101, 3-(5-(6-amino-3-bromopyridin-2-yl)-1-oxoisoindolin-2-yl)piperidine-2,6-dione]
DC50 (Helios): 0.47 µM
DC50 (Ikaros): ≥ 20 µM

Nc1ccc2cnc(-c3ccc4c(c3)CN(C3CCC(=O)NC3=O)C4=O)cc2c1 (centres unmarked) [Example 102, 3-(5-(6-aminoisoquinolin-3-yl)-1-oxoisoindolin-2-yl)piperidine-2,6-dione]
DC50 (Helios): 0.002 µM
DC50 (Ikaros): ≥ 20 µM

COc1cnc(-c2ccc3c(c2)CN(C2CCC(=O)NC2=O)C3=O)c2ccccc12 (centres unmarked) [Example 103, 3-(5-(4-methoxyisoquinolin-1-yl)-1-oxoisoindolin-2-yl)piperidine-2,6-dione]
DC50 (Helios): 0.01 µM
DC50 (Ikaros): ≥ 20 µM

COc1cccnc1-c1ccc2c(c1)CN(C1CCC(=O)NC1=O)C2=O (centres unmarked) [Example 104, 3-(5-(3-methoxypyridin-2-yl)-1-oxoisoindolin-2-yl)piperidine-2,6-dione]
DC50 (Helios): 0.13 µM
DC50 (Ikaros): ≥ 20 µM

O=C1CCC(N2Cc3cc(-c4ncc(OCc5ccccc5)c5ccccc45)ccc3C2=O)C(=O)N1 (centres unmarked) [Example 105, 3-(5-(4-(benzyloxy)isoquinolin-1-yl)-1-oxoisoindolin-2-yl)piperidine-2,6-dione]
DC50 (Helios): 0.14 µM
DC50 (Ikaros): ≥ 20 µM

COc1ccc(N)nc1-c1ccc2c(c1)CN(C1CCC(=O)NC1=O)C2=O (centres unmarked) [Example 106, 3-(5-(6-amino-3-methoxypyridin-2-yl)-1-oxoisoindolin-2-yl)piperidine-2,6-dione]
DC50 (Helios): 0.02 µM
DC50 (Ikaros): ≥ 20 µM

O=C1CCC(N2Cc3cc(-c4ncccc4CO)ccc3C2=O)C(=O)N1 (centres unmarked) [Example 107, 3-(5-(3-(hydroxymethyl)pyridin-2-yl)-1-oxoisoindolin-2-yl)piperidine-2,6-dione]
DC50 (Helios): 1.13 µM
DC50 (Ikaros): ≥ 10 µM

O=C1CCC(N2Cc3cc(-c4cc(CO)ccn4)ccc3C2=O)C(=O)N1 (centres unmarked) [Example 108, 3-(5-(4-(hydroxymethyl)pyridin-2-yl)-1-oxoisoindolin-2-yl)piperidine-2,6-dione]
DC50 (Helios): 0.83 µM
DC50 (Ikaros): ≥ 10 µM

O=C1CCC(N2Cc3cc(-c4ccccn4)ccc3C2=O)C(=O)N1 (centres unmarked) [Example 109, 3-(1-oxo-5-(pyridin-2-yl)isoindolin-2-yl) piperidine-2,6-dione]
DC50 (Helios): 0.61 µM
DC50 (Ikaros): ≥ 10 µM

N#Cc1ccnc(-c2ccc3c(c2)CN(C2CCC(=O)NC2=O)C3=O)c1 (centres unmarked) [Example 110, 2-(2-(2,6-dioxopiperidin-3-yl)-1-oxoisoindolin-5-yl) isonicotinonitrile]
DC50 (Helios): 0.88 µM
DC50 (Ikaros): ≥ 10 µM

N#CCc1ccnc(-c2ccc3c(c2)CN(C2CCC(=O)NC2=O)C3=O)c1 (centres unmarked) [Example 111, 2-(2-(2-(2,6-dioxopiperidin-3-yl)-1-oxoisoindolin-5-yl)pyridin-4-yl)acetonitrile]
DC50 (Helios): 0.93 µM
DC50 (Ikaros): ≥ 10 µM
